Earlier results as cited in paper PMC9963398, “Discovery of New Quinolone-Based Diarylamides as Potent B-RAF^V600E/C-RAF Kinase Inhibitors Endowed with Promising In Vitro Anticancer Activity” (International Journal of Molecular Sciences, 2023).

Columns and labels:
NCI-H322M = system: NCI-H322M; design: method as in PMID 32745753; conditions: NSCL cancer; cited from earlier work
COLO 205 = system: COLO 205; design: method as in PMID 32745753; conditions: COLO 205, Colon cancer; cited from earlier work
SF-268 = system: SF-268; design: method as in PMID 32745753; conditions: SF-268, CNS cancer; cited from earlier work
SK-MEL-28 = system: SK-MEL-28; design: method as in PMID 32745753; conditions: SK-MEL-28, Melanoma; cited from earlier work
OVCAR-5 = system: OVCAR-5; design: method as in PMID 32745753; conditions: OVCAR-5, Ovarian cancer; cited from earlier work
786-0 = system: 786-0; design: method as in PMID 32745753; conditions: 786-0, Renal cancer; cited from earlier work
A498 = system: A498; design: method as in PMID 32745753; conditions: A498, Renal cancer; cited from earlier work
CAKI-1 = system: CAKI-1; design: method as in PMID 32745753; conditions: CAKI-1, Renal cancer; cited from earlier work
RXF 393 = system: RXF 393; design: method as in PMID 32745753; conditions: RXF 393, Renal cancer; cited from earlier work
SN12C = system: SN12C; design: method as in PMID 32745753; conditions: Renal cancer; cited from earlier work
MCF7 = system: MCF7; design: method as in PMID 32745753; conditions: MCF7, Breast cancer; cited from earlier work
PC-3 = conditions: PC-3, Prostate cancer; cited from earlier work

Question: What does the source list for CNC(=O)c1cc(Oc2ccc(NC(=O)Nc3ccc(Cl)c(C(F)(F)F)c3)cc2)ccn1 [Sorafenib]?
Answer: GI50 (NCI-H322M): 2800 nM; GI50 (COLO 205): 2200 nM; GI50 (SF-268): 2500 nM; GI50 (SK-MEL-28): 2600 nM; GI50 (OVCAR-5): 2900 nM; GI50 (786-0): 3400 nM; GI50 (A498): 2300 nM; GI50 (CAKI-1): 2900 nM; GI50 (RXF 393): 3400 nM; GI50 (SN12C): 2400 nM; GI50 (MCF7): 2800 nM; GI50 (PC-3): 2000 nM
